Reference: article PMC7927096, “Dipeptides of S-Substituted Dehydrocysteine as Artzyme Building Blocks: Synthesis, Complexing Abilities and Antiproliferative Properties” (International Journal of Molecular Sciences, 2021)
Where a name gives a salt, the structure may show the parent alone. Read-outs that look alike come from different tables or passages of the source.

How the values were obtained:
[1] = test system: ten diverse human cancer cells lines and murine non-tumorigenic cell line (Balb/3T3); assay: Antiproliferative screen, whole cell line panel (statements in words); format: cell-based; settings: SRB; for antiproliferative activity (in words): across cell lines; for activity against resistant versus parent cell lines (in words): 10d: with exception of the line resistant to gemcitabine
Description: (§1) Ten different human cancer cell lines (including drug-resistant sublines) and one non-tumorigenic murine fibroblasts cell line were used to determine antiproliferative activity of the tested compounds. The MDA-MB-231 (breast adenocarcinoma), UM-UC-3 (urinary bladder transitional cell carcinoma), LoVo (colorectal adenocarcinoma), LoVo^Dx (colorectal adenocarcinoma, doxorubicin-resistant) and Balb/3T3 (non-tumorigenic murine fibroblasts) were purchased from the American Type Culture Collection (ATCC; Rockville, USA). The MCF-7 (breast adenocarcinoma) and A549 (lung carcinoma) were purchased from European Collection of Authenticated Cell Cultures (ECACC; Porton Down, UK). The UM-UC-3^CDDP, UM-UC-3^GEM, UM-UC-3^VBL, and UM-UC-3^CDDP/GEM cell lines were established at Hirszfeld Institute of Immunology and Experimental Therapy of the Polish Academy of Sciences (HIIET, PAS, Wroclaw, Poland) by the continuous exposure to the increasing concentrations of corresponding cytostatics.
(§2) The Balb/3T3 and UM-UC-3 were cultured in Dulbecco’s Modified Eagle Medium (DMEM; Life Technologies, UK) supplemented with 10% (v/v) fetal bovine serum (FBS; GE Healthcare HyClone, Logan, USA) and 2 mM L-glutamine (Sigma-Aldrich, Poznań, Poland). The UM-UC-3^CDDP, UM-UC-3^GEM, UM-UC-^3VBL, and UM-UC-3^CDDP/GEM culture media were additionally supplemented with appropriate cytostatics: 2.5 µg/mL cisplatin (Accord, Warsaw, Poland) for UM-UC-3^CDDP, 500 nM gemcitabine (Sigma-Aldrich, Poznań, Poland) for UM-UC-3^GEM, 5 nM vinblastine (Sigma-Aldrich, Poznań, Poland) for UM-UC-3VBL, 2.5 µg/mL cisplatin and 500 nM gemcitabine for UM-UC-3^CDDP/GEM. The LoVo cell line was cultured in F-12K Nutrient Mixture (F-12K; Corning, Corning, USA), supplemented with 10% (v/v) FBS. LoVo^Dx culture medium was additionally supplemented with doxorubicin 100 ng/mL (Accord, Warsaw, Poland). The MCF-7 cell line was cultured in Eagle’s medium (HIIET, PAS, Wroclaw, Poland), supplemented with 10% (v/v) FBS (Sigma-Aldrich, Poznań, Poland), 2 mM L-glutamine, MEM non-essential amino acid solution 1% (v/v) (Sigma-Aldrich, Poznań, Poland), insulin 8 µg/mL (Sigma-Aldrich, Poznań, Poland). The MDA-MB-231 cell line was cultured in RPMI 1640 (HIIET, PAS, Wroclaw, Poland), supplemented with 10% (v/v) FBS (Sigma-Aldrich, Poznań, Poland) and 2 mM L-glutamine. The A 549 cell line was cultured in OptiMEM (HIIET, PAS, Wroclaw, Poland), supplemented with 5% (v/v) FBS (GE Healthcare HyClone, Logan, USA) and 2 mM L-glutamine. All culture media were supplemented with antibiotics—100 μg/mL streptomycin (Polfa Tarchomin, Warsaw, Poland) and 100 U/mL penicillin (Sigma-Aldrich, Poznań, Poland).
(§3) All cell lines were cultured in a humidified atmosphere at 37 °C with 5% (v/v) CO2 and passaged twice a week using EDTA-Trypsin solution (pH 8; HIIET, Wroclaw, Poland) as a detachment agent.
(§4) All compounds, for antiproliferative activity assessment, were stored at […] as 50 mM solutions in dimethyl sulfoxide (DMSO; Avantor Performance Materials, Gliwice, Poland).
(§5) The cells were seeded on 384-well plates (Greiner Bio One, Kremsmünster, Austria) at 1 × 10^3 cells/well density for A 549, UM-UC-3, UM-UC-3^CDDP, UM-UC-3^GEM, UM-UC-3^CVBL and UM-UC-3^CDDP/GEM cell lines. Other cell lines were seeded at 2 × 10^3 cells/well. After overnight incubation, compounds were applied at eight concentrations (ranging from 100 µM to 0.03 µM). After 72 h incubation, the sulforhodamine B (SRB) assay based on Skehan et al. was carried out with slight modifications. In brief, 50 µL of the medium was replaced with 30 µL/well of 25% (w/v) trichloroacetic acid (Avantor Performance Materials, Gliwice, Poland). After 1 h incubation at room temperature, plates were washed three times with tap water, and 20 µL of 0.1% (w/v) solution of sulforhodamine B (Sigma-Aldrich, Poznan, Poland) in 1% (v/v) acetic acid (Avantor Performance Materials, Gliwice, Poland) was added to each well. […]

[2] = test system: Balb/3T3 (non-tumorigenic murine fibroblasts); assay: Antiproliferative activity, sulforhodamine B assay; format: cell-based; settings: SRB, 72 h incubation, non-tumorigenic line, read-out: IC50 ± SD, Balb/3T3
Description: as §1, §2, §3, §4, §5

[3] = test system: MCF-7 (breast adenocarcinoma); assay: Antiproliferative activity, sulforhodamine B assay; format: cell-based, human; settings: SRB, 72 h incubation, read-out: IC50 ± SD, MCF-7
Description: as §1, §2, §3, §4, §5

A549 (lung carcinoma) = assay: Antiproliferative activity, sulforhodamine B assay; format: cell-based, human; settings: SRB, 72 h incubation, read-out: IC50 ± SD, A-549
Description: as §1, §2, §3, §4, §5

[4] = test system: UM-UC-3^VBL (vinblastine-resistant); assay: Antiproliferative activity, sulforhodamine B assay; format: cell-based, human; settings: SRB, 72 h incubation, read-out: IC50 ± SD, UM-UC-3^VBL
Description: as §1, §2, §3, §4, §5

[5] = test system: UM-UC-3^CDDP (cisplatin-resistant); assay: Antiproliferative activity, sulforhodamine B assay; format: cell-based, human; settings: SRB, 72 h incubation, read-out: IC50 ± SD, UM-UC-3^CDDP
Description: as §1, §2, §3, §4, §5

[6] = test system: MDA-MB-231 (breast adenocarcinoma); assay: Antiproliferative activity, sulforhodamine B assay; format: cell-based, human; settings: SRB, 72 h incubation, read-out: IC50 ± SD, MDA-MB-231
Description: as §1, §2, §3, §4, §5

[7] = test system: UM-UC-3 (urinary bladder transitional cell carcinoma); assay: Antiproliferative activity, sulforhodamine B assay; format: cell-based, human; settings: SRB, 72 h incubation, read-out: IC50 ± SD, UM-UC-3
Description: as §1, §2, §3, §4, §5

[8] = test system: UM-UC-3^CDDP/GEM (resistant to cisplatin and gemcitabine); assay: Antiproliferative activity, sulforhodamine B assay; format: cell-based, human; settings: SRB, 72 h incubation, read-out: IC50 ± SD, UM-UC-3^CDDP/GEM
Description: as §1, §2, §3, §4, §5

[9] = test system: LoVo^DX (colorectal adenocarcinoma, doxorubicin-resistant); assay: Antiproliferative activity, sulforhodamine B assay; format: cell-based, human; settings: SRB, 72 h incubation, read-out: IC50 ± SD, LoVo^DX
Description: as §1, §2, §3, §4, §5

[10] = test system: LoVo (colorectal adenocarcinoma); assay: Antiproliferative activity, sulforhodamine B assay; format: cell-based, human; settings: SRB, 72 h incubation, read-out: IC50 ± SD, LoVo
Description: as §1, §2, §3, §4, §5

[11] = test system: UM-UC-3^GEM (gemcitabine-resistant); assay: Antiproliferative activity, sulforhodamine B assay; format: cell-based, human; settings: SRB, 72 h incubation, read-out: IC50 ± SD, UM-UC-3^GEM
Description: as §1, §2, §3, §4, §5

[12] = design: method as in PMID 12031802; settings: Cu(II) complex; cited from earlier work

| SMILES | antiproliferative activity (in words) [1] | activity against resistant versus parent cell lines (in words) [1] | IC50 ([2]; Mus musculus, BALB/3T3) [µM] | IC50 ([3]; Homo sapiens, MCF7) [µM] | IC50 (A549 (lung carcinoma); Homo sapiens, A549) [µM] | IC50 ([4]; Homo sapiens) [µM] | IC50 ([5]; Homo sapiens) [µM] | IC50 ([6]; Homo sapiens, MDA-MB-231) [µM] | IC50 ([7]; Homo sapiens, UMUC3) [µM] | IC50 ([8]; Homo sapiens) [µM] | IC50 ([9]; Homo sapiens, LoVo/DX) [µM] | IC50 ([10]; Homo sapiens, LoVo) [µM] | IC50 ([11]; Homo sapiens) [µM] | further results |
| --- | --- | --- | --- | --- | --- | --- | --- | --- | --- | --- | --- | --- | --- | --- |
| COC(=O)/C(=C/Sc1nc2cc(OC)ccc2o1)NC(=O)[C@H](Cc1ccccc1)NC(=O)OC(C)(C)C [Compound 7c, Boc-Phe-ΔCys(S-5-methoxybenzoxazole)-OMe] | most potent representatives | equipotential towards both resistant and parent cell lines | 5.3 ± 0.4 | 4.5 ± 0.4 | 4 ± 1.1 | 5.8 ± 0.6 | 6.8 ± 0.8 | 7.1 ± 0.8 | 6.2 ± 0.8 | 5.9 ± 0.4 | 4.5 ± 0.4 | 6.3 ± 0.5 | 7 ± 0.5 |  |
| COC(=O)/C(=C/Sc1nc2cc(OC)ccc2o1)NC(=O)CNC(=O)OC(C)(C)C [Compound 6c, Boc-Gly-ΔCys(S-5-methoxybenzoxazole)-OMe] | most potent representatives | equipotential towards both resistant and parent cell lines | 5.3 ± 1.2 | 5.3 ± 0.9 | 6.2 ± 1.4 | 6 ± 1.5 | 7.8 ± 0.7 | 5 ± 0.8 | 7.2 ± 0.6 | 8.6 ± 1.4 | 6.4 ± 0.4 | 8.7 ± 1.1 | 5.2 ± 0.6 |  |
| COC(=O)/C(=C/Sc1nc2ccccc2s1)NC(=O)[C@H](Cc1ccccc1)NC(=O)OC(C)(C)C [Compound 7d, Boc-Phe-ΔCys(S-benzothiazole)-OMe] | most potent representatives | equipotential towards both resistant and parent cell lines | 3.1 ± 0.6 | 6.8 ± 0.5 | 6.6 ± 1.4 | 6.3 ± 1 | 11.2 ± 1.5 | 10.8 ± 0.4 | 6.7 ± 1.4 | 9.1 ± 1.2 | 8.6 ± 0.9 | 9.6 ± 0.9 | 8 ± 2.3 |  |
| COC(=O)/C(=C/Sc1nc2ccccc2s1)NC(=O)CNC(=O)OC(C)(C)C [Compound 6d, Boc-Gly-ΔCys(S-benzothiazole)-OMe] | most potent representatives | equipotential towards both resistant and parent cell lines | 5.8 ± 0.9 | 4.5 ± 0.5 | 5.6 ± 0.9 | 4.9 ± 0.8 | 6.4 ± 0.4 | 6.1 ± 0.6 | 4.6 ± 0.4 | 6.2 ± 0.8 | 6.2 ± 0.6 | 6.7 ± 0.7 | 4.6 ± 0.5 |  |
| COC(=O)/C(=C/Sc1nc(-c2ccccc2)c[nH]1)NC(=O)[C@H](Cc1ccccc1)NC(=O)OC(C)(C)C [Compound 7b, Boc-Phe-ΔCys(S-4-phenylimidazole)-OMe] |  |  | 7.6 ± 0.9 | 15.5 ± 2.5 | 12 ± 4 | 17.3 ± 1.7 | 19 ± 3.2 | 15.2 ± 4.4 | 13.5 ± 4.5 | 17.2 ± 2.1 | 23 ± 2.2 | 16.4 ± 1.7 | 19.9 ± 3.3 |  |
| NCC(=O)N/C(=C\c1ccccc1)C(=O)O [Gly(Z)ΔPhe] |  |  |  |  |  |  |  |  |  |  |  |  |  | logβ of the analogous species with {N-NH2, Namide} binding mode [12]: 2.19 |
| COC(=O)/C(=C/Sc1nc2ccccc2s1)NC(=O)[C@@H](N)Cc1ccccc1 [Compound 10d, HCl Phe-ΔCys(S-benzothiazole)-OMe] |  | more effective against resistant cell lines | 42.2 ± 9.3 | 22 ± 4.5 | 14 ± 5.6 | 9.4 ± 2.2 | 16.6 ± 2.5 | 24.4 ± 3 | 30.5 ± 3.7 | 25.3 ± 8 | 33.1 ± 9 | 70.3 ± 21.5 | 67.8 ± 9.6 |  |
| COC(=O)/C(=C/Sc1nc[nH]n1)NC(=O)[C@H](Cc1ccccc1)NC(=O)OC(C)(C)C [Compound 7a, Boc-Phe-ΔCys(S-triazole)-OMe] | markedly lower, if any, activity |  | 19.7 ± 1.9 | 74.5 ± 5.8 | 60.7 ± 12.1 | 54.9 ± 3.5 | 67.7 ± 3.9 | 53.3 ± 5.5 | 56 ± 5.7 | 62.2 ± 5.3 | > 100 | 75.8 ± 6.5 | 65.2 ± 4.9 |  |
| COC(=O)/C(=C/Sc1nc(-c2ccccc2)c[nH]1)NC(=O)CNC(=O)OC(C)(C)C [Compound 6b, Boc-Gly-ΔCys(S-4-phenylimidazole)-OMe] |  |  | 38.4 ± 3.5 | 31.8 ± 7.8 | 27.2 ± 7.7 | 33.8 ± 2.6 | 34.6 ± 3.6 | 35 ± 10 | 23.1 ± 2.6 | 32.5 ± 4 | > 100 | 32.4 ± 2.6 | 35.1 ± 2.8 |  |
| [NH2][Pt]([NH2])([Cl])[Cl] [CDDP, cisplatin, reference compound] |  |  |  |  |  |  |  |  |  |  |  |  |  | IC50 [2]: 10.2 ± 4.8 µM; IC50 [3]: 6 ± 2.2 µM; IC50 (A549 (lung carcinoma)): 2.7 ± 1 µM; IC50 [4]: 2.3 ± 0.3 µM; IC50 [5]: 26.1 ± 1.8 µM; IC50 [6]: 24.4 ± 4.8 µM; IC50 [7]: 2.4 ± 0.6 µM; IC50 [8]: 25.1 ± 1.9 µM; IC50 [9]: 3.4 ± 0.2 µM; IC50 [10]: 4.4 ± 0.3 µM; IC50 [11]: 2.6 ± 0.2 µM |
